Reference: the NIST ThermoML archive (doi:10.1016/j.jct.2008.12.021)

Experiment: osmotic coefficient (dimensionless); mn = molality of the nth substance listed, in mol/kg
Settings: 323.15 K, Liquid, vapour pressure osmometer

COS(=O)(=O)[O-].Cn1cc[n+](C)c1 [1,3-dimethylimidazolium methylsulfate] + CC(C)O
Settings | osmotic coefficient
m1 = 0.0241 | 0.914
m1 = 0.0557 | 0.846
m1 = 0.2089 | 0.683
m1 = 0.3053 | 0.614
m1 = 0.3982 | 0.588
m1 = 0.6947 | 0.509
m1 = 0.9721 | 0.461
m1 = 1.274 | 0.442
m1 = 1.66 | 0.416
m1 = 2.058 | 0.392
m1 = 2.447 | 0.364
m1 = 2.827 | 0.343
m1 = 3.313 | 0.329
m1 = 3.712 | 0.323
m1 = 4.112 | 0.298

COS(=O)(=O)[O-].Cn1cc[n+](C)c1 [1,3-dimethylimidazolium methylsulfate] + CCCO
Settings | osmotic coefficient
m1 = 0.0512 | 0.848
m1 = 0.079 | 0.772
m1 = 0.0997 | 0.727
m1 = 0.2023 | 0.67
m1 = 0.2902 | 0.59
m1 = 0.3952 | 0.544
m1 = 0.488 | 0.526
m1 = 0.6881 | 0.492
m1 = 0.9815 | 0.454
m1 = 1.299 | 0.432
m1 = 1.691 | 0.396
m1 = 2.097 | 0.375
m1 = 2.545 | 0.36
m1 = 2.929 | 0.343
m1 = 3.323 | 0.334
m1 = 3.71 | 0.322

COS(=O)(=O)[O-].Cn1cc[n+](C)c1 [1,3-dimethylimidazolium methylsulfate] + CCO
Settings | osmotic coefficient
m1 = 0.0289 | 0.815
m1 = 0.0374 | 0.794
m1 = 0.0789 | 0.719
m1 = 0.0991 | 0.687
m1 = 0.1941 | 0.626
m1 = 0.3285 | 0.56
m1 = 0.4326 | 0.53
m1 = 0.5312 | 0.503
m1 = 0.6925 | 0.479
m1 = 0.9868 | 0.449
m1 = 1.284 | 0.424
m1 = 1.699 | 0.399
m1 = 2.078 | 0.382
m1 = 2.489 | 0.363
m1 = 2.937 | 0.345
m1 = 3.314 | 0.326
m1 = 3.709 | 0.325
m1 = 4.016 | 0.331

CCCCn1cc[n+](C)c1.COS(=O)(=O)[O-] [1-butyl-3-methylimidazolium methyl sulfate] + CC(C)O
Settings | osmotic coefficient
m1 = 0.0524 | 0.95
m1 = 0.0842 | 0.905
m1 = 0.1084 | 0.871
m1 = 0.2087 | 0.799
m1 = 0.3036 | 0.733
m1 = 0.4106 | 0.685
m1 = 0.4869 | 0.648
m1 = 0.682 | 0.588
m1 = 0.9823 | 0.523
m1 = 1.32 | 0.493
m1 = 1.692 | 0.488
m1 = 2.05 | 0.502
m1 = 2.446 | 0.48
m1 = 2.829 | 0.455
m1 = 3.311 | 0.451

CCCCn1cc[n+](C)c1.COS(=O)(=O)[O-] [1-butyl-3-methylimidazolium methyl sulfate] + CCCO
Settings | osmotic coefficient
m1 = 0.0437 | 0.873
m1 = 0.0547 | 0.829
m1 = 0.2041 | 0.691
m1 = 0.3571 | 0.639
m1 = 0.5002 | 0.628
m1 = 0.6627 | 0.628
m1 = 0.8487 | 0.629
m1 = 1.007 | 0.629
m1 = 1.28 | 0.628
m1 = 1.665 | 0.62
m1 = 2.143 | 0.599
m1 = 2.937 | 0.581

CCCCn1cc[n+](C)c1.COS(=O)(=O)[O-] [1-butyl-3-methylimidazolium methyl sulfate] + CCO
Settings | osmotic coefficient
m1 = 0.0495 | 0.78
m1 = 0.0783 | 0.716
m1 = 0.176 | 0.646
m1 = 0.3283 | 0.573
m1 = 0.3907 | 0.55
m1 = 0.5167 | 0.529
m1 = 0.6846 | 0.508
m1 = 0.9851 | 0.496
m1 = 1.318 | 0.499
m1 = 1.727 | 0.48
m1 = 2.093 | 0.474
m1 = 2.507 | 0.465
m1 = 2.914 | 0.448
m1 = 3.311 | 0.424
m1 = 3.697 | 0.408
